Assay results: PMC3364162 (Journal of Medicinal Chemistry, 2012)

T1: SRC2-2 coactivator peptide SRC2-2 (Homo sapiens, UniProt Q15596)
T1 chain: KHKILHRLLQDSS


How the values were obtained:
in vitro = details: PAMPA, pH 7.4
DU145 cells = experiment: Cytotoxicity in DU145 cells; format: cell-based, human
HEK293T cells = experiment: Toxicity by CellTiter-Glo; format: cell-based, human; details: Conc. 62.5 μM
[1] = target: T1, SRC2-2 coactivator peptide SRC2-2

Row | Molecule | Papp (in vitro) | Toxicity (%) (HEK293T cells) | further results
1 | Cc1[nH]c2ccccc2c1C(Nc1ccccc1)c1ccc(CCCO)cc1 (stereo not shown) [30i] | 0.148 ×10⁻⁶ cm/s | – | –
2 | Cc1[nH]c2ccccc2c1C(Nc1ccc(Cl)cc1)c1ccccc1Cl (stereo not shown) [31b] | – | – | Concentration above which increased cytotoxicity was observed (DU145 cells): higher than 20 μM
3 | COC(=O)c1ccc2c(c1)C(C)(C)C(/C=C/c1ccc(OC)cc1)=[N+]2C [compound 1] | 0.0138 ×10⁻⁶ cm/s | – | –
4 | COc1ccc(/C=C/C2=[N+](C)c3ccc(OC)cc3C2(C)C)cc1 [compound 2] | 0.282 ×10⁻⁶ cm/s | – | –
5 | CCOc1ccc(/C=C/C2=[N+](C)c3ccc(C(=O)OC)cc3C2(C)C)cc1 [compound 3] | 0.00603 ×10⁻⁶ cm/s | – | –
6 | COC(=O)c1ccc(/C=C/C2=[N+](C)c3ccc(OC)cc3C2(C)C)cc1 [compound 4] | 0.0117 ×10⁻⁶ cm/s | – | –
7 | COC(=O)c1ccc2c(c1)C(C)(C)C(/C=C/c1ccc(O)cc1)=[N+]2C [compound 5] | 0.02 ×10⁻⁶ cm/s | – | –
8 | CCCS(=O)(=O)c1oc(-c2cccs2)nc1S(=O)(=O)c1ccc(F)cc1 [compound 7] | 0.251 ×10⁻⁶ cm/s | – | –
9 | CCS(=O)(=O)c1oc(-c2cccs2)nc1S(=O)(=O)c1ccccc1 [compound 8] | 0.214 ×10⁻⁶ cm/s | – | –
10 | CC(C)CS(=O)(=O)c1oc(-c2cccs2)nc1S(=O)(=O)c1ccc(F)cc1 [compound 9] | 0.166 ×10⁻⁶ cm/s | – | –
11 | CC(C)S(=O)(=O)c1oc(-c2cccs2)nc1S(=O)(=O)c1ccccc1 [compound 10] | 0.437 ×10⁻⁶ cm/s | – | –
12 | COc1ccc(C(Nc2ccccn2)c2c(C)[nH]c3ccccc23)cc1 (stereo not shown) [compound 11] | – | 100% | –
13 | Cc1ccc(C(Nc2ccccn2)c2c(C)[nH]c3ccccc23)cc1 (stereo not shown) [compound 12] | – | 90% | –
14 | COc1cccc(C(Nc2ccccn2)c2c(C)[nH]c3ccccc23)c1 (stereo not shown) [compound 13] | – | 60% | –
15 | Cc1[nH]c2ccccc2c1C(Nc1ccccn1)c1ccc(F)cc1 (stereo not shown) [compound 16] | – | 100% | –
16 | Cc1[nH]c2ccccc2c1C(Nc1ccccn1)c1cccc(Cl)c1 (stereo not shown) [compound 18] | – | 100% | –
17 | Cc1ccc(S(=O)(=O)ON2C(=O)c3ccccc3C2=O)cc1 [compound 20] | 0.00195 ×10⁻⁶ cm/s | 50% | –
18 | COc1ccc(OC)c(S(=O)(=O)ON2C(=O)c3ccccc3C2=O)c1 [compound 21] | 0.0145 ×10⁻⁶ cm/s | 50% | –
19 | CCc1ccc(S(=O)(=O)ON2C(=O)c3ccccc3C2=O)cc1 [compound 22] | 0.0148 ×10⁻⁶ cm/s | – | –
20 | Cc1c(C=O)c(C(=O)O)c(C)n1Cc1ccc(Cl)cc1 [compound 23] | 0.00525 ×10⁻⁶ cm/s | 20% | –
21 | O=Cc1nc2ccccc2n1Cc1ccc2ccccc2c1 [compound 24] | 0.513 ×10⁻⁶ cm/s | – | –
22 | O=Cc1nc2ccccc2n1Cc1ccc(Cl)cc1Cl [compound 25] | 0.302 ×10⁻⁶ cm/s | – | –
23 | COCC(=O)Oc1c(Sc2ccc(Cl)cc2)c(C)nn1-c1ccccc1 [compound 26] | 0.0331 ×10⁻⁶ cm/s | 0% | –
24 | Nc1nc2ccc(S(=O)(=O)N3CCCCC3)cc2s1 [compound 27] | 0.0525 ×10⁻⁶ cm/s | – | –
25 | CCCCNC(=O)Cn1sc2nc(C)cc(C)c2c1=O [compound 28] | 0.166 ×10⁻⁶ cm/s | – | –
26 | Cc1cccc(N2COc3ccc4ccccc4c3C2)c1 [compound 29] | 1.12 ×10⁻⁶ cm/s | – | –
27 | Vitamin D receptor (protein) MEAMAASTSLPDPGDFDRNVPRICGVCGDRATGFHFNAMTCEGCKGFFRRSMKRKALFTCPFNGDCRITKDNRRHCQACRLKRCVDIGMMKEFILTDEEVQRKREMILKRKEEEALKDSLRPKLSEEQQRIIAILLDAHHKTYDPTYSDFCQFRPPVRVNDGGGSHPSRPNSRHTPSFSGDSSSSCSDHCITSSDMMDSSSFSNLDLSEEDSDDPSVTLELSQLSMLPHLADLVSYSIQKVIGFAKMIPGFRDLTSEDQIVLLKSSAIEVIMLRSNESFTMDDMSWTCGNQDYKYRVSDVTKAGHSLELIEPLIKFQVGLKKLNLHEEEHVLLMAICIVSPDRPGVQDAALIEAIQDRLSNTLQTYIRCRHPPPGSHLLYAKMIQKLADLRSLNEEHSKQYRCLSFQPECSMKLTPLVLEVFGNEIS | – | – | Kd [1]: 1700 nM
